According to US20220002728A1, “METHOD FOR PREVENTING OXIDATION OF POLYPHENOL BY MEANS OF APTAMER, MATERIAL THEREOF, AND USE THEREOF” (Nexmos Co., LTD, priority 2018, published 2022):

Assay: WST-1 assay of EGCG oxidation delay by aptamer
Format: physicochemical
Details: for comparison of EGCG oxidation delay effect of aptamer K4 and aptamer K5: 20 μM aptamer, 500 μM EGCG, 30 minutes, WST-1 assay (FIG. 5); for concentration dependence of EGCG oxidation delay (reduction of WST-1 delayed): 5, 10 and 20 uM aptamer with EGCG, WST-1 assay (FIGS. 3 and 4); for oxidation of EGCG delayed: at 20 uM aptamer, 500 mM EGCG (so in the source), room temperature 30 minutes, WST-1, 440 nm absorbance measured for 16 hours (FIG. 3, FIG. 4)
Description: FIG. 1 is a graph showing the effect of delaying EGCG oxidation in aptamer K1 (SEQ ID NO: 1) to K9 (SEQ ID NO: 9) of the present invention. Nine types of aptamer K from aptamer K1 to aptamer K9 that bind to EGCG were prepared in the same manner as described above. After 20 μM aptamer K1 to K9 and 500 μM EGCG were reacted for 30 minutes, respectively, WST-1 assay was performed. The degree of delaying EGCG oxidation of each aptamer K was compared,
The aptamer (aptamers of SEQ ID NOs: 1 to 9) of the present invention reacting specifically with the EGCG obtained through the SELEX was dissolved in a folding buffer (1 mM MgCl2 in PBS) and then dissolved at 95° C.
After reacting 500 uM EGCG and one of the prepared 20 μM aptamers K1 to K9 and for 30 minutes, WST-1 assay was performed. The degree of EGCG oxidation delay of each aptamer K was compared.
500 mM EGCG and 5, 10, and 20 uM of the prepared aptamer K4 were reacted at room temperature for 30 minutes, respectively, and then WST-1 assay was performed. Prepared sample and WST-1([…]) was reacted to measure the formazan produced and with the plate reader, 440 nm absorbance was measured for 16 hours.
The aptamer K5 (aptamer of SEQ ID NO: 5) that specifically reacts with EGCG obtained through the SELEX was prepared in the same manner as described above and was tested for the effect of delaying EGCG oxidation.
Aptamers K4 and K5 binding to the EGCG were prepared in the same manner as described above. 20 μM aptamer K4, or aptamer K5, and 500 μM EGCG were reacted for 30 minutes, respectively, followed by WST-1 assay. It was confirmed that the EGCG oxidation delay effect of 20 μM aptamer K4 and aptamer K5 was similar (FIG. 5).

## aptamer K4: DNA aptamer binding EGCG, 30 mer: CGACGACAGGAGGTGCGGCCCCGGCAGACC (DNA, backbone and methylation of C not given here)
  comparison of EGCG oxidation delay effect of aptamer K4 and aptamer K5: similar
  concentration dependence of EGCG oxidation delay (reduction of WST-1 delayed): delayed (about 33% at 20 uM) depending on the concentration
  oxidation of EGCG delayed: about 33%

## aptamer K5: DNA aptamer binding EGCG, 29 mer: ACGCATGCCGGGCGCGCTCCCTGTCGTCC (DNA, backbone and methylation of C not given here)
  comparison of EGCG oxidation delay effect of aptamer K4 and aptamer K5: similar
  concentration dependence of EGCG oxidation delay (reduction of WST-1 delayed): delayed (about 33% at 20 uM) depending on the concentration
  oxidation of EGCG delayed: about 33%
Listed as 1(5)
  concentration dependence of EGCG oxidation delay (reduction of WST-1 delayed): delayed depending on the concentration
